# Laboratory results as given in patent US6689749B1, “Neuropeptides originating in scorpion” (Suntory Limited, priority 1996, dated 2004).
# Biological target: T1, rat brain voltage-gated K+ channel, Kv1.3 (Rattus norvegicus, UniProt P15384)
# T1 construct: expressed in transfected cells; host or cells: Xenopus oocytes (cRNA injection; pAS18 vector, SP6 transcription; clone from Prof; O. Pongs)
# Assay: Assay of K+ channel inhibition: two-electrode voltage clamp of Kv1.3 expressed in Xenopus oocytes
# Assay type: cell-based
# Conditions: IC50 comparison with C-terminally amidated HsTX1
# Experimental: Assay on inhibitory activity of the peptides on K^+ channels was performed in the following manner. The gene of the rat brain voltage-gated K^+ channel, Kv1.3 (Stuhmer et al., EMBO J., 8, vol. 11, pp. 3235-3244, 1988), which was graciously contributed by Prof. O. Pongs (Institute für Neurale Signalverarbeitung, Hamburg, Germany) was inserted into pAS18 vector according to a conventional technique. This vector was treated with EcoRI and then the resultant clone was transcribed in vitro with SP6 RNA polymerase using a transcription kit (Stratagene Inc., USA). The cRNA obtained was injected into Xenopus oocytes 16-72 hr prior to electrophysiological experiments.
# The oocytes which had been expressed the Kv1.3 gene were added to a 100 μl-chamber filled with an ND96 solution (0.3 mM CaCl2, 1 mM MgCl2, 2 mM KCl and 96 mM NaCl in 5 mM Hepes buffer, pH 7.6) supplemented with 50 mg/ml of bovine serum albumin (BSA), and the ND96 solution was continuously perfused through reservoirs at a flow rate of 4 ml/min. The sample to be tested was separately dissolved to an ND96 solution and then added to the chamber by perfusion through a reservoir. The switching from one reservoir to another for each experiment was performed by means of Teflon valves. All measurements were made at room temperature (about 22° C.). […]
# T1 sequence (P15384 whole entry): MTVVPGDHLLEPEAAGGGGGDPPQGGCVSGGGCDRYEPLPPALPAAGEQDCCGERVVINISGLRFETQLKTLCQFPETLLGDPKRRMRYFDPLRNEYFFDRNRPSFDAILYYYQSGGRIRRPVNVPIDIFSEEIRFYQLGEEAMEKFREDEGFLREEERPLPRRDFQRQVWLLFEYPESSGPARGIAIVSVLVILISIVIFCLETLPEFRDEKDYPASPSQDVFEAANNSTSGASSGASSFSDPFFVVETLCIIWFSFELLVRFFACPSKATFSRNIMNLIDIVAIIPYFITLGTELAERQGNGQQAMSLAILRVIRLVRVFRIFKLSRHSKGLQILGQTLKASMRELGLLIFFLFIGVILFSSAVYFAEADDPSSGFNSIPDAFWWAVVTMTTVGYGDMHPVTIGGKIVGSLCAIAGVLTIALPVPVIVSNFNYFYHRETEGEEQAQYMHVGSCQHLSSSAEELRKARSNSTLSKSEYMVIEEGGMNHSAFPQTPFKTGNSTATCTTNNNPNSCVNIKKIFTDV
smiles,measurement,value
CSCC[C@@H]1NC(=O)[C@@H]2CSSC[C@H](NC(=O)[C@H](CO)NC(=O)[C@H](C)N)C(=O)N[C@@H](CCCNC(=N)N)C(=O)N[C@@H]([C@@H](C)O)C(=O)N3CCC[C@H]3C(=O)N[C@@H](CCCCN)C(=O)N[C@@H](CC(=O)O)C(=O)N[C@H]3CSSC[C@H](NC(=O)[C@H](CCCCN)NC(=O)[C@H](CCCNC(=N)N)NC(=O)[C@H](CC(N)=O)NC1=O)C(=O)N[C@@H](CCCCN)C(=O)N[C@H]1CSSC[C@H](NC(=O)[C@@H]4CCCN4C(=O)[C@H](CC(=O)O)NC(=O)[C@H](C)NC3=O)C(=O)N[C@@H](CCCNC(=N)N)C(=O)N[C@@H](CCCCN)C(=O)N[C@@H](CCC(=O)O)C(=O)N[C@@H]([C@@H](C)O)C(=O)NCC(=O)N[C@@H](CSSC[C@@H](C(=O)O)NC(=O)[C@H](CCCNC(=N)N)NC(=O)[C@H](CC(N)=O)NC1=O)C(=O)N1CCC[C@H]1C(=O)N[C@@H](Cc1ccc(O)cc1)C(=O)NCC(=O)N[C@@H](CCCCN)C(=O)N2 [HsTX1-COOH],activity relative to HsTX1 on Kv1.3,about one-fifth
